Experimental data as given in paper PMC5462101 (Future medicinal chemistry, 2015).

What was measured:
soybean lipoxygenase = molecular target: T1, soybean lipoxygenase (Glycine max, UniProt P08170); assay: Inhibition of soybean lipoxygenase; type: biochemical; conditions: sodium linoleate 0.1 mM, read-out: Lipoxygenase inhibitory activity (IC50)
T1 construct: purchased Sigma
T1 sequence (P08170 1-839): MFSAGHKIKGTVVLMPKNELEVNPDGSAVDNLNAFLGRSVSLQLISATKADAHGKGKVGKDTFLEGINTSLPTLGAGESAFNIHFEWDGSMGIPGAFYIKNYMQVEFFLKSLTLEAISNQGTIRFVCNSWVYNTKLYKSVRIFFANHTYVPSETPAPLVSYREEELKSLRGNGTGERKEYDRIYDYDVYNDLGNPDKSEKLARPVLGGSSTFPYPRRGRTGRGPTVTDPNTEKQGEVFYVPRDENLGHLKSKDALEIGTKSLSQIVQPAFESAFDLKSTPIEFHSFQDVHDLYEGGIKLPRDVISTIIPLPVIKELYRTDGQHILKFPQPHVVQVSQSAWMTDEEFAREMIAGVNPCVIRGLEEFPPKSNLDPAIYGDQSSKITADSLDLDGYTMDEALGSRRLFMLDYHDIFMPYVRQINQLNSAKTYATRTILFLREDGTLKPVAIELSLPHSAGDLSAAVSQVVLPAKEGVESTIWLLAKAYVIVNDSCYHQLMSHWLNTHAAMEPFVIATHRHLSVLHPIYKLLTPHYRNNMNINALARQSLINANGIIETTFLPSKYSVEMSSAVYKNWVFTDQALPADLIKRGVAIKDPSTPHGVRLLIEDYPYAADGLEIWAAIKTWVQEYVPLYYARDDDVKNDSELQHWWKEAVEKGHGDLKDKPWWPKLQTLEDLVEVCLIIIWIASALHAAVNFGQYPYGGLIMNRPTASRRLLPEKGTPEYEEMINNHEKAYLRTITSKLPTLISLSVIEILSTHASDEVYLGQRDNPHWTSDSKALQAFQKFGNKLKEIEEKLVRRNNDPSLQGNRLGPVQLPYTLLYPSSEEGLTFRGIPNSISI
Description: The substituted pteridines prepared were assayed for inhibition of soybean lipoxygenase (Table 1) (Supplementary Information). Many studies have used readily obtainable soybean lipoxygenase, which is a homologue of mammalian lipoxygenase and well examined. The availability of soybean LOX and its well-characterized crystal structure led to its use in this study.
Determination of soybean lipoxygenase inhibition
A solution in DMSO of each compound to be tested was incubated at room temperature with sodium linoleate (0.1 mM) and a solution of soybean lipoxygenase (EC 1.13.11.12) (1:9 x 10^4 w/v in saline, 0.2 mL, Sigma). The conversion of sodium linoleate to 13-hydroperoxylinoleic acid was monitored by observation at 234 nm and compared with the value of appropriate standard inhibitor (Table 1).
IC50 determinations. OriginPro 8 was used to determine IC50 values from the sigmoidal line fitted to a graph of log[concentration] against the average percentage inhibition from two independent experiments, with at least 6 different concentrations. The SEM is the calculated standard error in the IC50 value of the fitted line.

rat model of colitis = assay: Acetic acid-induced colitis in the rat; type: in vivo, Fisher 344 rats; conditions: 0.01 mmol/kg intrarectally, 4% acetic acid
Description: LOX has also been associated with inflammation and ulcerative colitis. In the present study, a model for colitis involving intracolonic administration of aqueous 4% acetic acid in the rat was used, leading to acute inflammatory reaction. Treated rats presented partial to diffuse petechial bleeding, single erosion and limited ulceration indicating an overall healing effect of the compounds. Substituted pteridines presenting a satisfactory combination of activities 5a, 18a, 18d and 18f were tested using this in vivo model characterized by diffuse exfoliated mucosa as well as multiple and extended erosion and ulcers of the colon (Table 3). No mortality was encountered.
Fisher 344 rats (150-200 g) were housed in wire-mesh cages, given standard laboratory chow and tap water ad libitum and acclimatized for one week before experiments. Rats were randomly assigned to experimental groups. All in vivo experiments conform to the law for the protection of experimental animals (Republic of Greece) and are registered at the Veterinary Administration of the Republic of Greece in accordance with recognized guidelines on animal experimentation including Directive 2010/63/EU.
Induction of colitis
Rats were anesthetized using pentobarbital (50 mg/kg ip) prior to administration with 1 mL of either vehicle (0.9% w/v saline) or the compound under study at doses 0.01mmol/kg intrarectally via a polyethylene cannula (fitted to a 1 mL syringe) with the tip inserted approximately 8 cm into the anus. Following 30 min pretreatment, 1 ml of 4% acetic acid was introduced into the colon intrarectally and, after exposure for 60 s, the excess fluid was withdrawn. The luminal content was then expelled by instillation of air (10 mL), the ligature was removed and the abdomen was sutured. Both groups of rats were allowed to recover with food and water and the resulting injury was assessed after 48 h. The experiment was conducted using two groups, each containing 3 animals.
Assessment of colonic damage. Rats were weighed, inspected for the presence of diarrhea and sacrificed using diethyl ether. The colons were excised and opened longitudinally, rinsed with cold saline, pinned out and observed under a dissecting microscope. Colonic damage was scored using the system of MacPherson and Pfeiffer: 0 – normal appearance, 1- hyperaemia, 2 – patchy petechial bleeding, 3 – diffuse petechial bleeding, 4 – partial exfoliated mucosa or single erosion or ulceration, 5 – diffuse exfoliated mucosa or multiple erosions or ulceration. The presence or absence of adhesions between the colon and the surrounding tissues was recorded. Scoring of the colonic damage (Table 4) was carried out by an observer unaware of the treatment.

Which results are given for `CN1CCN(c2nc(NCc3cccs3)c3nccnc3n2)CC1` [Compound 18f, 2-(4-methylpiperazin-1-yl)-N-(thiophen-2-ylmethyl)pteridin-4-amine]?
IC50 (soybean lipoxygenase): 55 ± 0.8 µM; Change in body weight (%) (rat model of colitis; assessed after 48 h): -10.7%; Score (levels 0–5) (rat model of colitis; colonic damage score, 48 h): All rats exhibited partial to diffuse exfoliated mucosa or single/multiple erosion or ulceration (4–5)
